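The compound was tested at five concentrations on cells cultured in 96-well plates, with a 48-hour exposure period. TGI denotes the concentration required for complete inhibition of growth.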
Assays:
Assay in all cases: NCI tumour cell line growth inhibition, 48 h
MALME-3M melanoma = tested on: MALME-3M melanoma
SF-295 CNS = tested on: SF-295 CNS
SN12C renal = tested on: SN12C renal
SR leukemia = tested on: SR leukemia
PC-3 prostate = tested on: PC-3 prostate
BT-549 breast = tested on: BT-549 breast
RXF 393 renal = tested on: RXF 393 renal
SK-MEL-28 melanoma = tested on: SK-MEL-28 melanoma
NCI-H522 lung = tested on: NCI-H522 lung
UACC-62 melanoma = tested on: UACC-62 melanoma
NCI-H226 lung = tested on: NCI-H226 lung
UO-31 renal = tested on: UO-31 renal
MOLT-4 leukemia = tested on: MOLT-4 leukemia
IGROV1 ovarian = tested on: IGROV1 ovarian
SK-MEL-5 melanoma = tested on: SK-MEL-5 melanoma
SK-MEL-2 melanoma = tested on: SK-MEL-2 melanoma
MDA-N = tested on: MDA-N
HL-60(TB) leukemia = tested on: HL-60(TB) leukemia
SNB-75 CNS = tested on: SNB-75 CNS
ACHN renal = tested on: ACHN renal
OVCAR-8 ovarian = tested on: OVCAR-8 ovarian
EKVX NSCLC = tested on: EKVX NSCLC
MDA-MB-435 = tested on: MDA-MB-435
COLO 205 colon = tested on: COLO 205 colon
SF-539 CNS = tested on: SF-539 CNS
MDA-MB-231 breast = tested on: MDA-MB-231 breast
HS 578T breast = tested on: HS 578T breast
M14 melanoma = tested on: M14 melanoma
K-562 leukemia = tested on: K-562 leukemia
786-0 renal = tested on: 786-0 renal
HT29 colon = tested on: HT29 colon
SF-268 CNS = tested on: SF-268 CNS
SNB-19 CNS = tested on: SNB-19 CNS
NCI-H460 lung = tested on: NCI-H460 lung
SK-OV-3 ovarian = tested on: SK-OV-3 ovarian
MCF7 breast = tested on: MCF7 breast
OVCAR-5 ovarian = tested on: OVCAR-5 ovarian
RPMI-8226 leukemia = tested on: RPMI-8226 leukemia
HCT-15 colon = tested on: HCT-15 colon
DU-145 prostate = tested on: DU-145 prostate
SW-620 colon = tested on: SW-620 colon
OVCAR-3 ovarian = tested on: OVCAR-3 ovarian
KM12 colon = tested on: KM12 colon
NCI/ADR-RES ovarian = tested on: NCI/ADR-RES ovarian
CAKI-1 renal = tested on: CAKI-1 renal
NCI-H23 lung = tested on: NCI-H23 lung
LOX IMVI melanoma = tested on: LOX IMVI melanoma
HCT-116 colon = tested on: HCT-116 colon
HOP-62 NSCLC = tested on: HOP-62 NSCLC
CCRF-CEM leukemia = tested on: CCRF-CEM leukemia
HOP-92 NSCLC = tested on: HOP-92 NSCLC
A549 NSCLC = tested on: A549 NSCLC
U251 CNS = tested on: U251 CNS
OVCAR-4 ovarian = tested on: OVCAR-4 ovarian
TK-10 renal = tested on: TK-10 renal
UACC-257 melanoma = tested on: UACC-257 melanoma

Structure (SMILES): OCc1cn(Cc2ccccc2)c2ccccc12
- TGI (MALME-3M melanoma): 19.5 µM
- TGI (SF-295 CNS): > 100 µM
- TGI (SN12C renal): > 46.8 µM
- TGI (SR leukemia): > 100 µM
- TGI (PC-3 prostate): 78.2 µM
- TGI (BT-549 breast): 23.1 µM
- TGI (RXF 393 renal): 4.53 µM
- TGI (SK-MEL-28 melanoma): > 100 µM
- TGI (NCI-H522 lung): 17.1 µM
- TGI (UACC-62 melanoma): 4.98 µM
- TGI (NCI-H226 lung): 0.123 µM
- TGI (UO-31 renal): > 100 µM
- TGI (MOLT-4 leukemia): > 100 µM
- TGI (IGROV1 ovarian): 2.09 µM
- TGI (SK-MEL-5 melanoma): > 47.2 µM
- TGI (SK-MEL-2 melanoma): 24.6 µM
- TGI (MDA-N): > 65.5 µM
- TGI (HL-60(TB) leukemia): > 83.2 µM
- TGI (SNB-75 CNS): 5.64 µM
- TGI (ACHN renal): > 58.2 µM
- TGI (OVCAR-8 ovarian): 46.9 µM
- TGI (EKVX NSCLC): > 100 µM
- TGI (MDA-MB-435): > 64.7 µM
- TGI (COLO 205 colon): 13.6 µM
- TGI (SF-539 CNS): > 69 µM
- TGI (MDA-MB-231 breast): 54.5 µM
- TGI (HS 578T breast): 30.4 µM
- TGI (M14 melanoma): > 54.3 µM
- TGI (K-562 leukemia): > 100 µM
- TGI (786-0 renal): > 53 µM
- TGI (HT29 colon): > 84.5 µM
- TGI (SF-268 CNS): 40.2 µM
- TGI (SNB-19 CNS): > 100 µM
- TGI (NCI-H460 lung): 35.8 µM
- TGI (SK-OV-3 ovarian): > 100 µM
- TGI (MCF7 breast): > 18 µM
- TGI (OVCAR-5 ovarian): 0.838 µM
- TGI (RPMI-8226 leukemia): 12.1 µM
- TGI (HCT-15 colon): 31.4 µM
- TGI (DU-145 prostate): > 37.2 µM
- TGI (SW-620 colon): > 100 µM
- TGI (OVCAR-3 ovarian): 6.96 µM
- TGI (KM12 colon): > 63.8 µM
- TGI (NCI/ADR-RES ovarian): 42.4 µM
- TGI (CAKI-1 renal): 1.64 µM
- TGI (NCI-H23 lung): 31 µM
- TGI (LOX IMVI melanoma): > 45.3 µM
- TGI (HCT-116 colon): > 26.3 µM
- TGI (HOP-62 NSCLC): > 100 µM
- TGI (CCRF-CEM leukemia): > 40.9 µM
- TGI (HOP-92 NSCLC): 22.9 µM
- TGI (A549 NSCLC): > 100 µM
- TGI (U251 CNS): 60.6 µM

Structure (SMILES): NS(=O)(=O)c1nnc(NC(=O)N(c2ccccc2)c2ccccc2)s1
- TGI (MALME-3M melanoma): 62.5 µM
- TGI (SF-295 CNS): > 100 µM
- TGI (SN12C renal): 40.8 µM
- TGI (OVCAR-4 ovarian): > 100 µM
- TGI (PC-3 prostate): > 100 µM
- TGI (BT-549 breast): 42.2 µM
- TGI (RXF 393 renal): 51.4 µM
- TGI (SK-MEL-28 melanoma): > 100 µM
- TGI (NCI-H522 lung): 40.9 µM
- TGI (UACC-62 melanoma): 59.1 µM
- TGI (NCI-H226 lung): > 100 µM
- TGI (UO-31 renal): > 100 µM
- TGI (MOLT-4 leukemia): > 100 µM
- TGI (IGROV1 ovarian): 52.6 µM
- TGI (SK-MEL-5 melanoma): 67 µM
- TGI (SK-MEL-2 melanoma): 89.1 µM
- TGI (MDA-N): 88.3 µM
- TGI (TK-10 renal): > 100 µM
- TGI (HL-60(TB) leukemia): 48.2 µM
- TGI (SNB-75 CNS): 72.4 µM
- TGI (OVCAR-8 ovarian): 51.1 µM
- TGI (EKVX NSCLC): 78.2 µM
- TGI (MDA-MB-435): 68.8 µM
- TGI (UACC-257 melanoma): > 100 µM
- TGI (COLO 205 colon): > 100 µM
- TGI (SF-539 CNS): 34.7 µM
- TGI (MDA-MB-231 breast): > 100 µM
- TGI (HS 578T breast): 73 µM
- TGI (M14 melanoma): 35.3 µM
- TGI (K-562 leukemia): > 100 µM
- TGI (786-0 renal): > 100 µM
- TGI (HT29 colon): > 100 µM
- TGI (SF-268 CNS): > 100 µM
- TGI (SNB-19 CNS): > 100 µM
- TGI (SK-OV-3 ovarian): > 100 µM
- TGI (MCF7 breast): > 100 µM
- TGI (OVCAR-5 ovarian): 70.1 µM
- TGI (RPMI-8226 leukemia): 49.4 µM
- TGI (HCT-15 colon): > 100 µM
- TGI (DU-145 prostate): 41 µM
- TGI (SW-620 colon): > 100 µM
- TGI (OVCAR-3 ovarian): 69.7 µM
- TGI (KM12 colon): 56.8 µM
- TGI (NCI/ADR-RES ovarian): 44.4 µM
- TGI (CAKI-1 renal): > 100 µM
- TGI (NCI-H23 lung): 58.9 µM
- TGI (LOX IMVI melanoma): 40.2 µM
- TGI (HCT-116 colon): 83.8 µM
- TGI (HOP-62 NSCLC): 77.3 µM
- TGI (CCRF-CEM leukemia): > 100 µM
- TGI (HOP-92 NSCLC): 53 µM
- TGI (A549 NSCLC): > 100 µM
- TGI (U251 CNS): > 100 µM
